ChEMBL document CHEMBL4138123, “Design, synthesis and biological evaluation of novel pyrazolochalcones as potential modulators of PI3K/Akt/mTOR pathway and inducers of apoptosis in breast cancer cells” (Eur J Med Chem, 2017)

How the values were obtained:
Assay type in all cases: functional
SF-539 = assay: Cytotoxicity against human SF539 cells assessed as growth inhibition after 48 hrs by sulforhodamine B assay; details: SF-539, 48 h
SK-MEL-5 [1] = assay: Cytotoxicity against human SK-MEL-5 cells assessed as growth inhibition after 48 hrs by sulforhodamine B assay; details: SK-MEL-5, 48 h
NCI/ADR-RES = assay: Cytotoxicity against human NCI/ADR-RES cells assessed as cell growth at 0.01 uM after 48 hrs by sulforhodamine B assay relative to control; details: read-out: Activity
OVCAR-8 [2] = assay: Cytotoxicity against human OVCAR8 cells assessed as cell growth at 0.01 uM after 48 hrs by sulforhodamine B assay relative to control; details: OVCAR-8, 48 h, read-out: Activity
OVCAR-4 = assay: Cytotoxicity against human OVCAR4 cells assessed as cell growth at 0.01 uM after 48 hrs by sulforhodamine B assay relative to control; details: OVCAR-4, 48 h, read-out: Activity
UACC-62 = assay: Cytotoxicity against human UACC62 cells assessed as cell growth at 0.01 uM after 48 hrs by sulforhodamine B assay relative to control; details: UACC-62, 48 h, read-out: Activity
HCT-15 = assay: Cytotoxicity against human HCT15 cells assessed as cell growth at 0.01 uM after 48 hrs by sulforhodamine B assay relative to control; details: HCT-15, 48 h, read-out: Activity
HCC 2998 = assay: Cytotoxicity against human HCC2998 cells assessed as cell growth at 0.01 uM after 48 hrs by sulforhodamine B assay relative to control; details: HCC 2998, 48 h, read-out: Activity
HL-60(TB) = assay: Cytotoxicity against human HL-60(TB) cells assessed as cell growth at 0.01 uM after 48 hrs by sulforhodamine B assay relative to control; details: HL-60, 48 h, read-out: Activity
TK-10 [3] = assay: Cytotoxicity against human TK10 cells assessed as cell growth at 0.01 uM after 48 hrs by sulforhodamine B assay relative to control; details: TK-10, 48 h, read-out: Activity
MOLT-4 = assay: Cytotoxicity against human MOLT4 cells assessed as cell growth at 0.1 uM after 48 hrs by sulforhodamine B assay relative to control; details: MOLT-4, 48 h, read-out: Activity
RPMI-8226 = assay: Cytotoxicity against human RPMI8226 cells assessed as cell growth at 0.1 uM after 48 hrs by sulforhodamine B assay relative to control; details: RPMI-8226, 48 h, read-out: Activity
NCI-H23 = assay: Cytotoxicity against human NCI-H23 cells assessed as cell growth at 0.1 uM after 48 hrs by sulforhodamine B assay relative to control; details: NCI-H23, 48 h, read-out: Activity
OVCAR-5 [4] = assay: Cytotoxicity against human OVCAR5 cells assessed as cell growth at 0.1 uM after 48 hrs by sulforhodamine B assay relative to control; details: OVCAR-5, 48 h, read-out: Activity
OVCAR-8 [5] = assay: Cytotoxicity against human OVCAR8 cells assessed as cell growth at 0.1 uM after 48 hrs by sulforhodamine B assay relative to control; details: OVCAR-8, 48 h, read-out: Activity
BT-549 = assay: Cytotoxicity against human BT549 cells assessed as cell growth at 0.1 uM after 48 hrs by sulforhodamine B assay relative to control; details: BT-549, 48 h, read-out: Activity
NCI-H322M = assay: Cytotoxicity against human NCI-H322M cells assessed as cell growth at 1 uM after 48 hrs by sulforhodamine B assay relative to control; details: read-out: Activity
SK-MEL-28 = assay: Cytotoxicity against human SK-MEL-28 cells assessed as cell growth at 1 uM after 48 hrs by sulforhodamine B assay relative to control; details: SK-MEL-28, 48 h, read-out: Activity
SK-MEL-5 [6] = assay: Cytotoxicity against human SK-MEL-5 cells assessed as cell growth at 1 uM after 48 hrs by sulforhodamine B assay relative to control; details: SK-MEL-5, 48 h, read-out: Activity
OVCAR-3 [7] = assay: Cytotoxicity against human OVCAR3 cells assessed as cell growth at 1 uM after 48 hrs by sulforhodamine B assay relative to control; details: OVCAR-3, 48 h, read-out: Activity
OVCAR-5 [8] = assay: Cytotoxicity against human OVCAR5 cells assessed as cell growth at 1 uM after 48 hrs by sulforhodamine B assay relative to control; details: OVCAR-5, 48 h, read-out: Activity
TK-10 [9] = assay: Cytotoxicity against human TK10 cells assessed as cell growth at 1 uM after 48 hrs by sulforhodamine B assay relative to control; details: TK-10, 48 h, read-out: Activity
UO-31 = assay: Cytotoxicity against human UO31 cells assessed as cell growth at 1 uM after 48 hrs by sulforhodamine B assay relative to control; details: UO-31, 48 h, read-out: Activity
MDA-MB-468 [10] = assay: Cytotoxicity against human MDA-MB-468 cells assessed as cell growth at 1 uM after 48 hrs by sulforhodamine B assay relative to control; details: MDA-MB-468, 48 h, read-out: Activity
K562 = assay: Cytotoxicity against human K562 cells assessed as cell growth at 10 uM after 48 hrs by sulforhodamine B assay relative to control; details: K562, 48 h, read-out: Activity
COLO 205 = assay: Cytotoxicity against human COLO205 cells assessed as cell growth at 10 uM after 48 hrs by sulforhodamine B assay relative to control; details: COLO 205, 48 h, read-out: Activity
OVCAR-3 [11] = assay: Cytotoxicity against human OVCAR3 cells assessed as cell growth at 10 uM after 48 hrs by sulforhodamine B assay relative to control; details: OVCAR-3, 48 h, read-out: Activity
SK-OV-3 = assay: Cytotoxicity against human SKOV3 cells assessed as cell growth at 10 uM after 48 hrs by sulforhodamine B assay relative to control; details: SK-OV-3, 48 h, read-out: Activity
A498 = assay: Cytotoxicity against human A498 cells assessed as cell growth at 10 uM after 48 hrs by sulforhodamine B assay relative to control; details: A498, 48 h, read-out: Activity
Hs-578T = assay: Cytotoxicity against human Hs 578T cells assessed as cell growth at 10 uM after 48 hrs by sulforhodamine B assay relative to control; details: read-out: Activity
MDA-MB-468 [12] = assay: Cytotoxicity against human MDA-MB-468 cells assessed as cell growth at 10 uM after 48 hrs by sulforhodamine B assay relative to control; details: MDA-MB-468, 48 h, read-out: Activity
A549 = assay: Cytotoxicity against human A549/ATCC cells assessed as cell growth at 100 uM after 48 hrs by sulforhodamine B assay relative to control; details: A549, 48 h, read-out: Activity
IGROV-1 = assay: Cytotoxicity against human IGROV1 cells assessed as cell growth at 100 uM after 48 hrs by sulforhodamine B assay relative to control; details: IGROV-1, 48 h, read-out: Activity
OVCAR-3 [13] = assay: Cytotoxicity against human OVCAR3 cells assessed as cell growth at 100 uM after 48 hrs by sulforhodamine B assay relative to control; details: OVCAR-3, 48 h, read-out: Activity
RXF 393 = assay: Cytotoxicity against human RXF393 cells assessed as cell growth at 100 uM after 48 hrs by sulforhodamine B assay relative to control; details: RXF 393, 48 h, read-out: Activity

| SMILES | LC50 (concentration killing 50% of cells) (SF-539) | TGI (SF-539) | LC50 (concentration killing 50% of cells) (SK-MEL-5 [1]) | TGI (SK-MEL-5 [1]) | growth at 0.01 µM (NCI/ADR-RES) | growth at 0.01 µM (OVCAR-8 [2]) | growth at 0.01 µM (OVCAR-4) | growth at 0.01 µM (UACC-62) | growth at 0.01 µM (HCT-15) | growth at 0.01 µM (HCC 2998) | growth at 0.01 µM (HL-60(TB)) | growth at 0.01 µM (TK-10 [3]) | growth at 0.1 µM (MOLT-4) | growth at 0.1 µM (RPMI-8226) | growth at 0.1 µM (NCI-H23) | growth at 0.1 µM (OVCAR-5 [4]) | growth at 0.1 µM (OVCAR-8 [5]) | growth at 0.1 µM (BT-549) | growth at 1 µM (NCI-H322M) | growth at 1 µM (SK-MEL-28) | also measured |
| --- | --- | --- | --- | --- | --- | --- | --- | --- | --- | --- | --- | --- | --- | --- | --- | --- | --- | --- | --- | --- | --- |
| COc1cc(-c2cc(/C=C/C(=O)c3ccc(N)cc3)[nH]n2)cc(OC)c1OC | 5.42 µM | 2.66 µM | 5.69 µM | 3.06 µM | 106% | 100% | 85% | 99% | 92% | 108% | 99% | 102% | 102% | 97% | 105% | 103% | 98% | 93% | 94% | 90% | GI50 (SF-539): 1.3 µM; GI50 (SK-MEL-5 [1]): 1.65 µM; growth at 1 µM (SK-MEL-5 [6]): 90%; growth at 1 µM (OVCAR-3 [7]): 79%; growth at 1 µM (OVCAR-5 [8]): 89%; growth at 1 µM (TK-10 [9]): 102%; growth at 1 µM (UO-31): 71%; growth at 1 µM (MDA-MB-468 [10]): 50%; growth at 10 µM (K562): 2%; growth at 10 µM (COLO 205): -84%; growth at 10 µM (OVCAR-3 [11]): -71%; growth at 10 µM (SK-OV-3): -9%; growth at 10 µM (A498): -43%; growth at 10 µM (Hs-578T): 29%; growth at 10 µM (MDA-MB-468 [12]): -58%; growth at 100 µM (A549): -52%; growth at 100 µM (IGROV-1): -49%; growth at 100 µM (OVCAR-3 [13]): -93%; growth at 100 µM (RXF 393): -86% |
| COc1cc(-c2cc(/C=C/C(=O)c3ccc(F)c(F)c3)[nH]n2)cc(OC)c1OC | 70 µM | 17.7 µM | 26.7 µM | 6.41 µM | 100% | 95% | 90% | 97% | 97% | 83% | 102% | 82% | 106% | 90% | 92% | 93% | 96% | 105% | 86% | 98% | growth at 1 µM (SK-MEL-5 [6]): 90%; growth at 1 µM (OVCAR-3 [7]): 95%; growth at 1 µM (OVCAR-5 [8]): 92%; growth at 1 µM (TK-10 [9]): 85%; growth at 1 µM (UO-31): 84%; growth at 1 µM (MDA-MB-468 [10]): 79%; growth at 10 µM (K562): 2%; growth at 10 µM (COLO 205): -90%; growth at 10 µM (OVCAR-3 [11]): -24%; growth at 10 µM (SK-OV-3): 17%; growth at 10 µM (A498): -14%; growth at 10 µM (Hs-578T): 21%; growth at 10 µM (MDA-MB-468 [12]): -2%; growth at 100 µM (A549): -15%; growth at 100 µM (IGROV-1): -1%; growth at 100 µM (OVCAR-3 [13]): -64%; growth at 100 µM (RXF 393): -61% |
| COc1ccc(-c2cc(/C=C/C(=O)c3cc(OC)c(OC)c(OC)c3)[nH]n2)cc1OC | 4.57 µM | 1.48 µM | 5.44 µM | 2.93 µM | 97% | 100% | 94% | 96% | 99% | 95% | 98% | 93% | 95% | 85% | 95% | 92% | 100% | 82% | 82% | 89% | GI50 (SF-539): 0.3 µM; GI50 (SK-MEL-5 [1]): 1.58 µM; growth at 1 µM (SK-MEL-5 [6]): 87%; growth at 1 µM (OVCAR-3 [7]): 84%; growth at 1 µM (OVCAR-5 [8]): 81%; growth at 1 µM (TK-10 [9]): 96%; growth at 1 µM (UO-31): 67%; growth at 1 µM (MDA-MB-468 [10]): 66%; growth at 10 µM (K562): -1%; growth at 10 µM (COLO 205): -72%; growth at 10 µM (OVCAR-3 [11]): -85%; growth at 10 µM (SK-OV-3): 37%; growth at 10 µM (A498): -28%; growth at 10 µM (Hs-578T): 9%; growth at 10 µM (MDA-MB-468 [12]): -62%; growth at 100 µM (A549): -62%; growth at 100 µM (IGROV-1): -72%; growth at 100 µM (OVCAR-3 [13]): -83%; growth at 100 µM (RXF 393): -83% |
